Where two headings read alike, the source gives them in different places.
How the values were obtained:
VRR in solution = conditions: ref. 1 (Van), ref. 6 (Rist), ref. 8 (CE), ref. 2 (Ori), supplementary references, read-out: Ksurf Solution; cited from earlier work
[1] = ligand-ligand dissociation constant in solution; ref. 2 (Van, CE, Ori), ref. 5 (Rist), supplementary references; read-out: K1 Solution (complex aggregation constant); cited from earlier work
[2] = test system: methicillin-susceptible Staphylococcus aureus (MSSA) ATCC 29213; assay: MIC by broth microdilution (CLSI M07-A8), with PS80; format: cell-based; conditions: MSSA ATCC 29213, with PS80
Description: Determination of MIC values to methicillin-susceptible Staphylococcus aureus (MSSA).
Minimum Inhibitory Concentration (MIC) is defined as the lowest concentration of antibacterial agent required to inhibit growth of a microorganism after incubation. The antibiotics vancomycin (Van) and ristomycin (Rist) were obtained from Sigma-Aldrich while chloroeremomycin (CE) and oritavancin (Ori) were obtained from the Medicine Company Inc., U.S.A. To prepare antibiotic stock solutions for MICs assay, 5 mg/ml of each drug was dissolved in water containing an appropriate volume of 0.002% polysorbate-80 or PS80 obtained from Sigma-Aldrich which corresponds to 20 µM to eliminate nonspecific interactions of drugs to surfaces particularly for Ori which is known to bind to glass and plastics13. Microbiological broth with PS80 maintained at 20 µM was used in the drug dilution steps until the required final (assay) concentration. Diluted concentrations of each drug were assayed by adding an inoculum of methicillin-susceptible Staphylococcus aureus (MSSA) ATCC 29213 cells and the MIC determined by broth microdilution according to Clinical Laboratory Standards Institute (CLSI) methodology M07-A8 (CLSI 2009a)14. The results as shown in Supplementary Table S2 for each antibiotic against clinical isolate of MSSA ATCC 29213 strains conducted in the presence of […]
PS80 are within the quality control ranges defined in the guideline15. […]

[3] = test system: vancomycin resistant E. faecalis (VRE); conditions: absence of polysorbate-80; ref. 2 (Van), ref. 5 (Rist, CE), ref. 9 (Ori), supplementary references; cited from earlier work
[4] = target: vancomycin-susceptible receptor (VSR); conditions: ref. 4 (Rist), ref. 3 (CE), supplementary references, read-out: Ksurf SPR; cited from earlier work
[5] = target: vancomycin-susceptible receptor (VSR); assay: Cantilever surface stress assay, antibiotic binding to surface-bound VSR
Text: (§1) To probe different pathways of signal-transduction central to the efficacy of recognition mechanisms and therapeutic agents, we used cantilever force-based technology. Because of its nanometre strain sensitivity, this technology can directly measure the smallest changes in mechanical strain caused by specific antibiotic binding. The principles of force transduction and measurements are well established[18][19][20] and many studies focused on cantilever sensors have been published. Unlike conventional methods such as 1H–NMR spectroscopy, enzyme-linked immunosorbent assays (ELISA)[29] or surface plasmon resonance (SPR)[30] which measure optical signatures of chemical binding, cantilever technology has the capacity to resolve forces at the level of individual hydrogen bonds, making it uniquely suited to provide important insight into force transduction mechanisms, such as cell wall strain in response to antibiotic binding. Moreover, in contrast to direct current or low-frequency signals, which cannot probe beyond electrical double layers formed by screening salts, mechanical signaling is sensitive to ligands even when they are located at distance of ~1 nm or more from the sensor surface (Fig. 1d). Measurements were performed using cantilevers functionalized with self-assembled monolayers (SAM) of VSR, VRR or reference polyethylene glycol (PEG) (see methods & materials, Supplementary Information). The specificity of mechanical signaling was achieved by performing measurements in differential mode, where the bending response of the reference PEG-coated cantilevers, (known to reduce nonspecific drug adsorption[8][14][34]) was subtracted from VSR- and VRR-coated cantilever signals (see cantilever measurement procedure, method section).
(§2) Thus far, we have discussed the impact of near-membrane layer on the association kinetics, mechanical force transduction, specificity of molecular recognition and microbial susceptibility. To gain mechanistic insight (Fig. 7a,b), we averaged measurements for each drug-target interaction over four separate chips and the results are summarized in Fig. 7c,d. […] The mechanical signaling response follows an s-shaped curve undergoing its steepest rise at N ~1/Ksurf before reaching a plateau when the binding sites are fully occupied (Fig. 7c,d). To calculate Ksurf, we used equation (2)[14], based on the conventional Hill adsorption model.
(§3) Here, Ksurf is raised to the power n to ensure that it maintains the dimension of concentration as n varies. Setting n = 1 yields the Langmuir isotherm where the reactions occur independently, while n > 1 corresponds to positive co-operative polyvalent interactions and n < 1 is a measure of negative co-operativity. In Fig. 7c,d, we find that the mechanical response at VSR levels off at 50 μM concentration for all antibiotics. In contrast, for the drug-resistant VRR a concentration of more than 1000 μM of Van, Rist or CE was required to reach indistinguishable maximum signals. The outcome of the fit using three parameters (n, Ksurf and σmax) is summarized in Supplementary Fig. 2. The calculated Ksurf for Ori binding to VSR is 40 ± 10 nM, which is 25 times stronger than for Van where Ksurf is 1.0 ± 0.3 μM. The Ksurf of Ori against VRR is 70 ± 10 nM, an astonishing 11,000 times stronger than for Van where Ksurf is 800 ± 300 μM. As a further measurement control and to confirm the accuracy of surface binding affinity, we used a commercially available SPR method (Fig. 7e,f and Supplementary SPR sensor chip functionalization procedure), where the detection of ligands is at a single planar metal surface.
(§4) The modified cantilever chip was mounted in a sealed liquid cell. The alignment of each light source onto the free end of each cantilever was confirmed by heating liquid chamber to 1 °C rise. […]

[6] = test system: vancomycin-resistant receptor (VRR); assay: Cantilever surface stress assay, antibiotic binding to surface-bound VRR
Text: as §1, §2, §3, §4

VSR (Ac-VSR) in solution = conditions: VSR in solution; ref. 1 (Van, Rist), ref. 7 (CE), ref. 2 (Ori), supplementary references; read-out: Ksurf Solution; cited from earlier work
[7] = test system: vancomycin susceptible E. faecalis (VSE); conditions: absence of polysorbate-80; ref. 9 (Van, CE, Ori), ref. 10 (Rist), supplementary references; cited from earlier work
[8] = target: vancomycin-resistant receptor (VRR); conditions: ref. 3 (Van), ref. 5 (Rist), ref. 4 (CE), supplementary references, read-out: Ksurf SPR; cited from earlier work

Q: Which results are given for ristomycin?
A: Kd (VRR in solution): 3850 µM; Kd [1]: 3000 µM; MIC [2]: 8.0 µg/mL; MIC ([2]; converted from mg/l): 3.69 µM; MIC VRE [3]: 512 µg/mL; Kd [4]: 0.2 µM; Kd ([5]; VSR on cantilever, fit of equation (2), pH 7.4 sodium phosphate buffer, read-out: Ksurf Cantilever (surface equilibrium dissociation constant)): 0.9 ± 0.5 µM; maximum stress data, Mean ([5]; VSR, 4 chips, one-way ANOVA table S5): 34.5; Mean difference of stress, VSR versus VRR ([5]; independent samples t-test, 4 chips, table S6): 27.0; compressive surface stress ([6]; 10 μM antibiotic against VRR): ~ 2 mNm^−1; concentration required to reach indistinguishable maximum signals ([6]; VRR): more than 1000 μM; Kd ([6]; VRR on cantilever, fit of equation (2), pH 7.4 sodium phosphate buffer, read-out: Ksurf Cantilever (surface equilibrium dissociation constant)): 32 ± 17 µM; maximum stress data, Mean ([6]; VRR, 4 chips, one-way ANOVA table S4): 7.5; Kd (VSR (Ac-VSR) in solution): 1.7 µM; MIC VSE [7]: 12.5 µg/mL; Kd [8]: 6.7 µM
